Legend:
Type in all cases: cell-based
NCI-H1299 = experiment: MTS assay (cell growth inhibition), NCI-H1299; details: NCI-H1299 cells, 72 hours incubation with test compound; concentration not given
Procedure, shortened: (§1)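 First, seed 3000 cells per well in low-serum (1% FBS) DMEM and culture 18 h. Next, add compounds prepared at 300× in DMSO and diluted 1:40 in DMEM; incubate 72 h. Finally, add MTS/PMS for 4 h and measure absorbance at 492 nm.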

PC-3 = experiment: MTS assay (cell growth inhibition), PC-3; details: PC-3 cells, 72 hours incubation with test compound; concentration not given
Procedure, shortened: as §1

PACA-2 = experiment: MTS assay (cell growth inhibition), PACA-2; details: PACA-2 cells, 72 hours incubation with test compound; concentration not given
Procedure, shortened: as §1

DLD-1 = experiment: MTS assay (cell growth inhibition), DLD-1; details: DLD-1 cells, 72 hours incubation with test compound; concentration not given
Procedure, shortened: as §1

Kato III = experiment: MTS assay (cell growth inhibition), Kato III; details: Kato III cells, 72 hours incubation with test compound; concentration not given
Procedure, shortened: as §1

MDA-MB = experiment: MTS assay (cell growth inhibition), MDA-MB; details: MDA-MB cells, 72 hours incubation with test compound; concentration not given
Procedure, shortened: as §1

Row | Structure (SMILES) | MTS CELL KILL DATA (% INHIBITION) NCI-H1299 (NCI-H1299) | MTS CELL KILL DATA (% INHIBITION) PC-3 (PC-3) | MTS CELL KILL DATA (% INHIBITION) PACA-2 (PACA-2) | MTS CELL KILL DATA (% INHIBITION) DLD-1 (DLD-1) | MTS CELL KILL DATA (% INHIBITION) Kato III (Kato III) | MTS CELL KILL DATA (% INHIBITION) MDA-MB (MDA-MB)
1 | Cc1c(C)c(C)c(CN2C(=O)c3cnc4[nH]ncc4c3C2=O)c(C)c1C [Example 8, 7-(pentamethylbenzyl)pyrazolo[3,4-b]pyrrolo[3,4-d]pyridine-6,8(3H,7H)-dione] | C (C = <50% INHIBITION) | A (A = 80-100% INHIBITION) | C (C = <50% INHIBITION) | C (C = <50% INHIBITION) | C (C = <50% INHIBITION) | B (B = 50-79% INHIBITION)
2 | Cc1cccc(OCCN2C(=O)c3cnc4[nH]ncc4c3C2=O)c1 [Example 13, 7-[2-(3-methylphenoxy)ethyl]pyrazolo[3,4-b]pyrrolo[3,4-d]pyridine-6,8(3H,7H)-dione] | B (B = 50-79% INHIBITION) | A (A = 80-100% INHIBITION) | C (C = <50% INHIBITION) | C (C = <50% INHIBITION) | A (A = 80-100% INHIBITION) | A (A = 80-100% INHIBITION)
3 | CC(=O)Nc1cccc(-c2n[nH]c3ncc4c(c23)C(=O)N(CCc2ccccc2)C4=O)c1 [Example 167, N-{3-[6,8-dioxo-7-(2-phenylethyl)-3,6,7,8-tetrahydropyrazolo[3,4-b]pyrrolo[3,4-d]pyridin-1-yl]phenyl}acetamide] | A (A = 80-100% INHIBITION) | A (A = 80-100% INHIBITION) | A (A = 80-100% INHIBITION) | A (A = 80-100% INHIBITION) | A (A = 80-100% INHIBITION) | A (A = 80-100% INHIBITION)
4 | CCCCOc1ccc(CN2C(=O)c3cnc4[nH]ncc4c3C2=O)cc1 [Example 15, 7-(4-butoxybenzyl)pyrazolo[3,4-b]pyrrolo[3,4-d]pyridine-6,8(3H,7H)-dione] | C (C = <50% INHIBITION) | B (B = 50-79% INHIBITION) | C (C = <50% INHIBITION) | C (C = <50% INHIBITION) | C (C = <50% INHIBITION) | A (A = 80-100% INHIBITION)
5 | CC(CN1C(=O)c2cnc3[nH]ncc3c2C1=O)c1ccccc1 (stereo not drawn) [Example 96, 7-(2-phenylpropyl)pyrazolo[3,4-b]pyrrolo[3,4-d]pyridine-6,8(3H,7H)-dione] | C (C = <50% INHIBITION) | C (C = <50% INHIBITION) | C (C = <50% INHIBITION) | C (C = <50% INHIBITION) | C (C = <50% INHIBITION) | C (C = <50% INHIBITION)
6 | O=C1c2cnc3[nH]ncc3c2C(=O)N1Cc1c(F)ccc(Cl)c1F [Example 34, 7-(3-chloro-2,6-difluorobenzyl)pyrazolo[3,4-b]pyrrolo[3,4-d]pyridine-6,8(3H,7H)-dione] | A (A = 80-100% INHIBITION) | A (A = 80-100% INHIBITION) | A (A = 80-100% INHIBITION) | A (A = 80-100% INHIBITION) | A (A = 80-100% INHIBITION) | A (A = 80-100% INHIBITION)
7 | Cc1cccc(CCN2C(=O)c3cnc4[nH]ncc4c3C2=O)c1 [Example 86, 7-[2-(3-methylphenyl)ethyl]pyrazolo[3,4-b]pyrrolo[3,4-d]pyridine-6,8(3H,7H)-dione] | C (C = <50% INHIBITION) | A (A = 80-100% INHIBITION) | C (C = <50% INHIBITION) | C (C = <50% INHIBITION) | A (A = 80-100% INHIBITION) | A (A = 80-100% INHIBITION)
8 | O=C1c2cnc3[nH]ncc3c2C(=O)N1CCc1c2ccccc2cc2ccccc12 [Example 129, 7-[2-(9-anthryl)ethyl]pyrazolo[3,4-b]pyrrolo[3,4-d]pyridine-6,8(3H,7H)-dione] | C (C = <50% INHIBITION) | A (A = 80-100% INHIBITION) | C (C = <50% INHIBITION) | A (A = 80-100% INHIBITION) | C (C = <50% INHIBITION) | A (A = 80-100% INHIBITION)
9 | Cc1ccc(OCCN2C(=O)c3cnc4[nH]ncc4c3C2=O)cc1 [Example 125, 7-[2-(4-methylphenoxy)ethyl]pyrazolo[3,4-b]pyrrolo[3,4-d]pyridine-6,8(3H,7H)-dione] | C (C = <50% INHIBITION) | A (A = 80-100% INHIBITION) | A (A = 80-100% INHIBITION) | C (C = <50% INHIBITION) | C (C = <50% INHIBITION) | A (A = 80-100% INHIBITION)
10 | O=C1c2cnc3[nH]ncc3c2C(=O)N1Cc1ccccc1I [Example 111, 7-(2-iodobenzyl)pyrazolo[3,4-b]pyrrolo[3,4-d]pyridine-6,8(3H,7H)-dione] | C (C = <50% INHIBITION) | C (C = <50% INHIBITION) | C (C = <50% INHIBITION) | C (C = <50% INHIBITION) | C (C = <50% INHIBITION) | C (C = <50% INHIBITION)
11 | O=C1c2cnc3[nH]nc(-c4cccc(F)c4)c3c2C(=O)N1CCc1ccccc1 [Example 165, 1-(3-fluorophenyl)-7-(2-phenylethyl)pyrazolo[3,4-b]pyrrolo[3,4-d]pyridine-6,8(3H,7H)-dione] | C (C = <50% INHIBITION) | A (A = 80-100% INHIBITION) | A (A = 80-100% INHIBITION) | A (A = 80-100% INHIBITION) | A (A = 80-100% INHIBITION) | A (A = 80-100% INHIBITION)
12 | CCCC(C)CCN1C(=O)c2cnc3[nH]ncc3c2C1=O (stereo not drawn) [Example 114, 7-(3-methylhexyl)pyrazolo[3,4-b]pyrrolo[3,4-d]pyridine-6,8(3H,7H)-dione] | C (C = <50% INHIBITION) | B (B = 50-79% INHIBITION) | C (C = <50% INHIBITION) | C (C = <50% INHIBITION) | C (C = <50% INHIBITION) | A (A = 80-100% INHIBITION)
13 | Cc1ccc2c(c1)N(CCN1C(=O)c3cnc4[nH]ncc4c3C1=O)C(C)(C)CC2C (stereo not drawn) [Example 29, 7-[2-(2,2,4,7-tetramethyl-3,4-dihydroquinolin-1(2H)-yl)ethyl]pyrazolo[3,4-b]pyrrolo[3,4-d]pyridine-6,8(3H,7H)-dione] | C (C = <50% INHIBITION) | A (A = 80-100% INHIBITION) | A (A = 80-100% INHIBITION) | C (C = <50% INHIBITION) | C (C = <50% INHIBITION) | A (A = 80-100% INHIBITION)
14 | O=C1c2cnc3[nH]ncc3c2C(=O)N1Cc1cccnc1 [Example 38, 7-(pyridin-3-ylmethyl)pyrazolo[3,4-b]pyrrolo[3,4-d]pyridine-6,8(3H,7H)-dione] | C (C = <50% INHIBITION) | C (C = <50% INHIBITION) | A (A = 80-100% INHIBITION) | A (A = 80-100% INHIBITION) | A (A = 80-100% INHIBITION) | A (A = 80-100% INHIBITION)
15 | O=C1c2cnc3[nH]ncc3c2C(=O)N1CC1C[C@H]2CC[C@@H]1C2 (stereo partly drawn) [Example 35, 7-[(1R,4S)-bicyclo[2.2.1]hept-2-ylmethyl]pyrazolo[3,4-b]pyrrolo[3,4-d]pyridine-6,8(3H,7H)-dione] | C (C = <50% INHIBITION) | C (C = <50% INHIBITION) | C (C = <50% INHIBITION) | C (C = <50% INHIBITION) | C (C = <50% INHIBITION) | C (C = <50% INHIBITION)
16 | O=C1c2cnc3[nH]ncc3c2C(=O)N1Cc1cccc(I)c1 [Example 101, 7-(3-iodobenzyl)pyrazolo[3,4-b]pyrrolo[3,4-d]pyridine-6,8(3H,7H)-dione] | C (C = <50% INHIBITION) | A (A = 80-100% INHIBITION) | C (C = <50% INHIBITION) | B (B = 50-79% INHIBITION) | A (A = 80-100% INHIBITION) | A (A = 80-100% INHIBITION)

Reference: patent US8906928B2, “Substituted pyrazolo-pyrrolo-pyridine-dione compounds” (ArQule, Inc., priority 2009, dated 2014)
